Results taken from patent US5451564A, “Antimicrobial composition comprising N-hydroxy heterocyclic thiones” (priority 1991, dated 1995).

Assays:
[1] = aqueous solubility of zinc complex after milling in pyrophosphate solution and dilution with distilled water until clear; assay type: physicochemical; details: for solubility in the presence of pyrophosphate (in words): relative to absence of oxy-phosphorus compound
Procedure: The concentration of the 2:1 zinc complex was then determined.
The zinc complex was milled in a 0.1 molar solution of tetrasodium pyrophosphate as described in Example 1. This was then diluted with distilled water until a clear solution was obtained.
These solutions were prepared by the method described in Example 1.

[2] = system: Pseudomonas aeruginosa (ATCC 19429); test: survival of bacteria in shampoo preserved with biocide; assay type: cell-based
Procedure: A shampoo having the following composition
*Empicol, Empilan and Empigen are registered Trademarks of Albright and Wilson, was prepared by stirring the Empicol ESB70 in water, and then adding the Empilan 2502 followed by the Empigen BB to give a clear homogenous solution. An aqueous solution of citric acid was added with stirring to give a pH of 7. Finally, the sodium chloride was added and the whole diluted to parts by adding water.
Aliquots (20 parts) of the above shampoo were then prepared with concentrations of the biocides indicated in Table 4 at 500, 125, 31.25 and 7.8 ppm of active ingredient.
The above samples were then challenged with a 0.2 parts by volume inoculum of a 24 hour culture of Pseudomonas aeruginosa (ATCC 19429) containing approximately 1×10^8 colony forming units (cfu's) per milliliter. The samples were then incubated in the dark at 25° C., 1 milliliter samples taken after 24 hours, 48 hours and 7 days and the number of surviving bacteria determined.
The procedure described in Example 7 was repeated, except that the compounds and formulations used in that example were replaced by a commercially available formulation of zinc pyrithione or a 1% dispersion of the 2:1 complex of 1-hydroxy-2-pyridinethione and zinc in an aqueous solution of 0.1M tetrasodium pyrophosphate prepared as described in Example 1.

Aspergillus niger = details: agar, 4 days at 25° C; 1% dispersion in 0.1 molar pyrophosphate (sample a: nil)
Procedure: (§1) In the microbiological testing, the compositions were tested for anti-microbial activity against bacteria and/or fungi including a yeast. The bacteria used were one or more of Eshcerichia coli, Pseudomonas aeruginosa, Staphylococcus aureus and Bacillus subtills. The fungi/yeast used were one or more of Aspergillus niger, Candida albicans, Aureobasidum pullulans, Gliocladium roseum, and Penicillium pinophilum.
(§2) These test organisms will be referred to hereafter as EC, PA, SA, BS, AN CA, AP, GR and PP respectively.
(§3) The material to be tested was dissolved in a suitable solvent and the solution obtained diluted with a further quantity of the same solvent to give a desired product concentration.
(§4) To a suitable agar medium was added a quantity of the product solution to give a desired concentration of the product. The agar medium containing the product was poured into petri dish plates and allowed to set.
(§5) The test organisms were surface inoculated onto the test plates by means of a multi-point inoculator. Each test plate was inoculated with both bacteria, fungi and yeast. The plates were incubated for four days at 25° C.
(§6) At the end of the incubation period, the plates were assessed visually for growth of the micro-organisms. The concentration of the product which inhibited the growth of a particular micro-organisms was recorded. This is the minimum inhibitory concentration (M.I.C.).
(§7) Generally, the compositions are evaluated against bacteria at the 25 and 100 ppm levels, and against fungi and yeast at the 5, 25 and 100 ppm levels.
(§8) 1% dispersions of the 1:2 zinc complex obtained from 1-hydroxy-2-pyridinethione were prepared in 0.1 molar solutions of various pyrophosphates as described in Example 1.

Aureobasidum pullulans = details: agar, 4 days at 25° C; 1% dispersion in 0.1 molar pyrophosphate (sample a: nil)
Procedure: as §1, §2, §3, §4, §5, §6, §7, §8

Bacillus subtills = details: agar, 4 days at 25° C; 1% dispersion in 0.1 molar pyrophosphate (sample a: nil)
Procedure: as §1, §2, §3, §4, §5, §6, §7, §8

Candida albicans = details: agar, 4 days at 25° C; 1% dispersion in 0.1 molar pyrophosphate (sample a: nil)
Procedure: as §1, §2, §3, §4, §5, §6, §7, §8

Eshcerichia coli = details: agar, 4 days at 25° C; 1% dispersion in 0.1 molar pyrophosphate (sample a: nil)
Procedure: as §1, §2, §3, §4, §5, §6, §7, §8

Gliocladium roseum = details: agar, 4 days at 25° C; 1% dispersion in 0.1 molar pyrophosphate (sample a: nil)
Procedure: as §1, §2, §3, §4, §5, §6, §7, §8

Penicillium pinophilum = details: agar, 4 days at 25° C; 1% dispersion in 0.1 molar pyrophosphate (sample a: nil)
Procedure: as §1, §2, §3, §4, §5, §6, §7, §8

Pseudomonas aeruginosa = details: agar, 4 days at 25° C; 1% dispersion in 0.1 molar pyrophosphate (sample a: nil)
Procedure: as §1, §2, §3, §4, §5, §6, §7, §8

Staphylococcus aureus = details: agar, 4 days at 25° C; 1% dispersion in 0.1 molar pyrophosphate (sample a: nil)
Procedure: as §1, §2, §3, §4, §5, §6, §7, §8

[3] = system: bacteria, fungi, yeasts and algae; details: in the presence of pyrophosphate salts
Procedure: Further aspects of the present invention are described in the following illustrative examples. Unless otherwise stated all refer to parts by weight.
as §1

[4] = system: mixed algal suspension (Stichococcus bacillaris, Gloecapsa alpicola, Nostoc commune, Trentepohlia aurea); details: zinc complex of 1-hydroxy-2-pyridinethione as 1% dispersion in 0.1M pyrophosphate (sample a: nil); re-challenge after 2 weeks, examined after 4 weeks
Procedure: A sample containing no biocide was include as a control.
The above aliquots were then inoculated with 0.1 parts by volume of a mixed algal suspension of 7 day cultures of the following algae.
The samples were then incubated at 15° to 20° C. and exposed to artificial illumination of between 700 and 1200 LUX over a two week period, where the illumination was provided from the side and the light varied over a 24 hour period to give 16 hours illumination and 8 hours darkness.
After a two week incubation period, the samples were re-challenged with the mixed algal inoculum, and again examined after a 4 week incubation period. The minimum inhibitory concentration at which algal growth was suppressed was then established by visual assessment.

| Structure (SMILES) | solubility in the presence of pyrophosphate (in words) [1] | Solubility ([1]; zinc dithiocarbamate complexes, nil or 0.1 M tetrasodium pyrophosphate) [ppm] | viable bacteria ([2]; 125 ppm, after 24 HRS) | viable bacteria ([2]; 125 ppm, after 48 HRS) | viable bacteria ([2]; 500 ppm, after 7 DAYS) | viable bacteria ([2]; 500 ppm, after 24 HRS) | viable bacteria ([2]; 500 ppm, after 48 HRS) | Solubility ([1]; 1:2 zinc complex of 1-hydroxy-2-pyridinethione, pebble milled in 0.1 molar pyrophosphate salt (sample a: nil), diluted with distilled water) [ppm] | MIC AN (Aspergillus niger) [ppm] | MIC AP (Aureobasidum pullulans) [ppm] | MIC BS (Bacillus subtills) [ppm] | MIC CA (Candida albicans) [ppm] | MIC EC (Eshcerichia coli) [ppm] | MIC GR (Gliocladium roseum) [ppm] | MIC PP (Penicillium pinophilum) [ppm] | MIC PA (Pseudomonas aeruginosa) | MIC SA (Staphylococcus aureus) [ppm] | effect of increased solubility in pyrophosphate on microbiological activity [3] | MIC (algal growth suppressed) [4] [ppm] |
| --- | --- | --- | --- | --- | --- | --- | --- | --- | --- | --- | --- | --- | --- | --- | --- | --- | --- | --- | --- |
| S=C([S-])NCCNC(=S)[S-].[Zn+2] [EBD, zinc complex of ethylene bis dithiocarbamate] | increased solubility | < 5 |  |  |  |  |  |  |  |  |  |  |  |  |  |  |  |  |  |
| CN(C)C(=S)[S-].CN(C)C(=S)[S-].[Zn+2] [ZDM, zinc complex of dimethyldithiocarbamate] |  |  | < 10 | < 10 | < 10 | < 10 | < 10 |  |  |  |  |  |  |  |  |  |  |  |  |
| On1ccccc1=S.On1ccccc1=S.[Zn] [a, 1:2 zinc complex of 1-hydroxy-2-pyridinethione] | improved solubility |  |  |  |  |  |  | < 10 | 25 | 5 | 25 | 25 | 25 | 5 | 5 | NA (Not active at 100 ppm) | 25 | does not adversely affect the microbiological activity | 0.64 |
